Test results taken from patent US8377938B2, “Phenoxypyridine derivative salts and crystals thereof, and process for preparing the same” (Eisai R&D Management Co., Ltd., priority 2007, dated 2013).

What was measured:
[1] = system: Human gastric cancer cells (MKN-45); assay: Inhibitory activity against the proliferation of human gastric cancer cells (MKN-45); format: cell-based; conditions: 72 h, read-out: IC50, concentration necessary to inhibit the cell proliferation by 50%, MKN-45, 1% FBS RPMI1640, 3 days, Cell Counting Kit-8
Method: Pharmacological Test Example 2:Inhibitory Activity Against the Proliferation of Human Gastric Cancer Cells (MKN-45)
Human gastric cancer cells (MKN-45) were suspended in a 1% FBS-containing RPMI1640 medium (purchased from Sigma). The cell suspension (1×10^4 cells/ml) was added in a 96-well plate for cell culture (purchased from NUNC, Production No. 167008) at 0.1 ml/well, and then cultured in a 5% CO2 incubator (37° C.) overnight. After the culture, each well was supplied with 0.1 ml of a test substance diluted with a 1% FBS-containing RPMI1640 medium, followed by culturing in a 5% CO2 incubator (37° C.) for 3 days. After the culture, each well was supplied with 10 μl of Cell Counting Kit-8 (purchased from DOJINDO, Production No. 343-07623), followed by incubation in a 5% CO2 incubator (37° C.) for about 1.5 hrs. After the incubation, using the Plate Reader MTP-500 (Corona Electric), the absorbance of each well was determined at a measurement wavelength of 450 nm and a reference wavelength of 660 nm.

HGFR autophosphorylation = assay: Inhibitory activity against the HGFR autophosphorylation using ELISA; format: cell-based; conditions: Homo sapiens, read-out: IC50, concentration necessary to inhibit HGFR autophosphorylation activity by 50%, MKN-45 cells, 1 hr treatment
Method: Pharmacological Test Example 3:Inhibitory Activity Against the HGFR Autophosphorylation Using ELISA
1. Preparation of Cell Extract
Human gastric cancer cells (MKN-45) were suspended in a 1% FBS-containing RPMI1640 medium (purchased from Sigma). The cell suspension (1×10^5 cells/ml) was put in a 96-well plate for cell culture (purchased from NUNC, Production No. 167008) at 0.1 ml/well, and then cultured in a 5% CO2 incubator (37° C.) overnight. After the culture, from each well was removed the supernatant solution, followed by adding 0.05 ml of a 1% FBS-containing RPMI1640 medium. […]
Each well of the plate prepared in 2. was washed three times with 200 μl of PBS, and supplied with 150 μl of 3% BSA/PBS, followed by incubating at room temperature for 2 hrs. […] Each well was supplied with 70 μl of 1 M phosphoric acid, and using the Plate Reader MTP-500 (Corona Electric), the absorbance of the well was instantly determined at a measurement wavelength of 450 nm. While defining the absorbance of a well supplied with the cell extract having no test substance as 100% HGFR autophosphorylation activity, and the absorbance, of a well supplied with 50 μl of the lysis buffer as 0% HGFR autophosphorylation activity, the HGFR autophosphorylation activity (%) was calculated for each well. […]

**Q.** What does the source list for `CN1CCN(C2CCN(C(=O)Nc3cc(Oc4ccc(NC(=O)C5(C(=O)Nc6ccc(F)cc6)CC5)c(F)c4)ccn3)CC2)CC1` [compound 1, N-(2-fluoro-4-{[2-({[4-(4-methylpiperazin-1-yl)piperidin-1-yl]carbonyl}amino)pyridin-4-yl]oxy}phenyl)-N′-(4-fluorophenyl)cyclopropane-1,1-dicarboxyamide]?
**A.** IC50 [1]: 17 nM; IC50 (HGFR autophosphorylation): 16 nM

**Q.** What does the source list for `O=C(Nc1cc(Oc2cc(F)c(NC(=O)C3(C(=O)Nc4ccc(F)cc4)CC3)cc2F)ccn1)N1CC(O)C1` [compound 2, N-{2,5-difluoro-4-[(2-{[(3-hydroxyazetidin-1-yl)carbonyl]amino}pyridin-4-yl)oxy]phenyl}-N′-(4-fluorophenyl)cyclopropane-1,1-dicarboxyamide]?
**A.** IC50 [1]: 5 nM; IC50 (HGFR autophosphorylation): 8.4 nM
